From patent US20250084067A1, “PYRAZOLE-SUBSTITUTED CYCLOPENTANOL ESTER DERIVATIVE AND USE THEREOF” (CHIA TAI TIANQING PHARMACEUTICAL GROUP CO., LTD., priority 2022, published 2025)
Like-named read-outs stand apart in the source and are kept apart here.

Columns and labels:
[1] = target: CDK2/CycA2 kinase (Homo sapiens (Human), UniProt P24941); assay: Determination of inhibitory activity against CDK2/CycA2 kinase; format: biochemical
Experimental: The wells were set in duplicate, and a control well was set. […] The resulting mixture was left to react at room temperature for 2 h, and then 5 µL of EDTA was added to terminate the reaction, followed by addition of 5 μL of a detection antibody (manufacturer: PerkinElmer, concentration: 8 nM). The mixture was incubated at room temperature for 1 h.

[2] = target: CDK2 CycE1 kinase (Homo sapiens (Human), UniProt P24941); assay: Determination of inhibitory activity against CDK2 CycE1 kinase; format: biochemical
Experimental: CDK2 CycE1 kinase solution (concentration: 0.015 ng/μL) was added to assay wells at 6 μL/well, and different compounds dissolved in DMSO were added to the assay wells separately using a nanoliter pipettor, such that the final concentrations of the compounds were 300 nM to 0.07 nM. The wells were set in duplicate, and a control well was set. After incubation of the above system for 30 min, ATP (concentration: 50 μM or 5000 μM) was mixed with ULight-Myelin Basic Protein Peptide substrate (manufacturer: PerkinElmer, concentration: […]) at a ratio of 1:1, and the mixture was added to the assay wells at 4 μL/well. The resulting mixture was left to react at room temperature for 2 h, and then 5 μL of EDTA was added to terminate the reaction, followed by addition of 5 μL of a detection antibody (manufacturer: PerkinElmer, concentration: 8 nM). The mixture was incubated at room temperature for 1 h.

[3] = read-out: CDK2/CycA2 10 μM ATP (kinase) IC50
[4] = read-out: CDK2/CycE1 10 μM ATP (kinase) IC50

SMILES	IC50 ([1]; 10 μM ATP) [nM]	IC50 ([2]; 10 μM ATP) [nM]	IC50 [1, 3] [nM]	IC50 [2, 4] [nM]
CC(C)NC(=O)O[C@@H]1CC[C@H](c2cc(Nc3ccc(N(C)S(C)(=O)=O)cn3)n[nH]2)C1 [Example 2]	10 to 50	10 to 50		
CC(C)NC(=O)O[C@@H]1CC[C@H](c2cc(Nc3ccc(NC=O)cn3)n[nH]2)C1 [Example 5]	< 10	< 10		
CC(C)NC(=O)O[C@@H]1CC[C@H](c2cc(Nc3ccc(NS(C)(=O)=O)cc3)n[nH]2)C1 [Example 7]	< 10	< 10		
CC(C)NC(=O)O[C@@H]1CC[C@H](c2cc(Nc3ccc(NS(C)(=O)=O)c(C(F)(F)F)n3)n[nH]2)C1 [Example 11]	< 10	< 10		
COCc1ccc(Nc2cc(C3CCC(OC(=O)NC(C)C)C3)[nH]n2)nc1 (centres unmarked) [Example 18]	10 to 50	10 to 50		
CC(C)NC(=O)OC1CCC(c2cc(Nc3ncc(NS(C)(=O)=O)cn3)n[nH]2)C1 (centres unmarked) [Example 19]	10 to 50	< 10		
COCCNc1ccc(Nc2cc(C3CCC(OC(=O)NC(C)C)C3)[nH]n2)nc1 (centres unmarked) [Example 20]	10 to 50	10 to 50		
CC(C)NC(=O)OC1CCC(c2cc(Nc3ccc4c(n3)OCC4)n[nH]2)C1 (centres unmarked) [Example 21]	< 10	< 10		
CC(C)NC(=O)OC1CCC(c2cc(NC3CCN(S(C)(=O)=O)CC3)n[nH]2)C1 (centres unmarked) [Example 22]	10 to 50	10 to 50		
CC(C)NC(=O)O[C@@H]1CC[C@H](c2cc(Nc3ccc(NS(C)(=O)=O)c(F)c3)n[nH]2)C1 [Example 23]	< 10	< 10		
CC(C)NC(=O)O[C@@H]1CC[C@H](c2cc(Nc3ccc(NS(C)(=O)=O)c(F)n3)n[nH]2)C1 [Example 24]	< 10	< 10		
CC(C)NC(=O)O[C@@H]1CC[C@H](c2cc(Nc3ccc(S(N)(=O)=O)cc3F)n[nH]2)C1 [Example 25]	< 10	< 10		
CC(C)NC(=O)O[C@@H]1CC[C@H](c2cc(Nc3ccc(N4CCCS4(=O)=O)cn3)n[nH]2)C1 [Example 28]	< 10	< 10		
CC(C)NC(=O)O[C@@H]1CC[C@H](c2cc(Nc3ccc(NS(C)(=O)=O)c(OC(F)(F)F)n3)n[nH]2)C1 [Example 29]	< 10	< 10		
CC(C)NC(=O)O[C@@H]1CC[C@H](c2cc(Nc3ccc(NS(C)(=O)=O)c(Cl)n3)n[nH]2)C1 [Example 30]	< 10	< 10		
CC(C)NC(=O)O[C@@H]1CC[C@H](c2cc(Nc3cc(OC(F)(F)F)c(NS(C)(=O)=O)cn3)n[nH]2)C1 [Example 31]			< 10	< 10
CC(C)NC(=O)O[C@@H]1CC[C@H](c2cc(Nc3cc(F)c(NS(C)(=O)=O)cc3F)n[nH]2)C1 [Example 32]	< 10	< 10		

SMILES	IC50 ([1]; 10 μM ATP) [nM]	IC50 ([2]; 10 μM ATP) [nM]	IC50 [1, 3] [nM]	IC50 [2, 4] [nM]
CC(C)NC(=O)O[C@@H]1CC[C@H](c2cc(Nc3ccc(N4CCCC4=O)c(F)c3)n[nH]2)C1 [Example 35]	< 10	< 10		
CC(C)NC(=O)O[C@@H]1CC[C@H](c2cc(Nc3ccc(-c4cnco4)cn3)n[nH]2)C1 [Example 36]	10 to 50	< 10		
CC(C)NC(=O)O[C@@H]1CC[C@H](c2cc(Nc3ccc(NS(C)(=O)=O)c(F)c3F)n[nH]2)C1 [Example 37]	< 10	< 10		
CC(C)NC(=O)O[C@@H]1CC[C@H](c2cc(Nc3ccc4c(c3)OCO4)n[nH]2)C1 [Example 39]	< 10	< 10		
CC(C)NC(=O)O[C@@H]1CC[C@H](c2cc(Nc3ccc(NS(C)(=O)=O)c(Cl)c3)n[nH]2)C1 [Example 40]	< 10	< 10		
CC(C)NC(=O)O[C@@H]1CC[C@H](c2cc(Nc3ccc4c(c3)CS(=O)(=O)N4)n[nH]2)C1 [Example 43]			< 10	< 10
COc1nc(Nc2cc([C@H]3CC[C@@H](OC(=O)NC(C)C)C3)[nH]n2)ccc1NS(C)(=O)=O [Example 45]	< 10	< 10		
CC(C)NC(=O)O[C@@H]1CC[C@H](c2cc(Nc3ccc(C(N)=O)cc3)n[nH]2)C1 [Example 46]	< 10	< 10		
CC(C)NC(=O)O[C@H]1CC[C@@H](c2cc(Nc3ccc(NS(C)(=O)=O)c(C(F)(F)F)c3)n[nH]2)C1 [Example 50]	< 10	< 10		
CC(C)NC(=O)O[C@@H]1CC[C@H](c2cc(Nc3ccc4c(c3)CCN4S(C)(=O)=O)n[nH]2)C1 [Example 51]	10 to 50	< 10		
CNC(=O)O[C@@H]1CC[C@H](c2cc(Nc3ccc4c(c3)CS(=O)(=O)C4)n[nH]2)C1 [Example 53]	< 10	< 10		
CC(C)NC(=O)O[C@@H]1CC[C@H](c2cc(Nc3ccc(S(C)(=O)=O)cc3)n[nH]2)C1 [Example 54]	< 10	< 10		
CC(C)NC(=O)O[C@@H]1CC[C@H](c2cc(Nc3ccc(N4CCCC4=O)c(Cl)n3)[nH]n2)C1 [Example 57]			< 10	< 10
CC(C)NC(=O)O[C@@H]1CC[C@H](c2cc(Nc3ccc(N=S(C)(C)=O)cc3)n[nH]2)C1 [Example 59]	10 to 50	10 to 50		
CC(C)NC(=O)O[C@@H]1CC[C@H](c2cc(NC3CCN(S(=O)(=O)c4cnn(C)c4)CC3)n[nH]2)C1 [Example 60]	10 to 50	10 to 50		
CC(C)NC(=O)O[C@@H]1CC[C@H](c2cc(Nc3ccc(S(C)(=N)=O)cc3)n[nH]2)C1 (some centres unmarked) [Example 61]	< 10	< 10		
CC(C)NC(=O)O[C@@H]1CC[C@H](c2cc(Nc3ccc(S(=N)(=O)C4CC4)cc3)n[nH]2)C1 (some centres unmarked) [Example 62]	< 10	< 10		

Continued, in another order:

IC50 ([1]; 10 μM ATP) [nM]	IC50 ([2]; 10 μM ATP) [nM]	SMILES	IC50 [1, 3] [nM]	IC50 [2, 4] [nM]
< 10	< 10	CC(C)NC(=O)O[C@@H]1CC[C@H](c2cc(Nc3ccc(NS(C)(=O)=O)cn3)n[nH]2)C1 [Example 1]		
< 10	< 10	CC(C)NC(=O)O[C@@H]1CC[C@H](c2cc(Nc3ccc(NS(C)(=O)=O)cc3F)n[nH]2)C1 [Example 3]		
10 to 50	10 to 50	CC(=O)N(C)c1ccc(Nc2cc([C@H]3CC[C@@H](OC(=O)NC(C)C)C3)[nH]n2)nc1 [Example 4]		
< 10	< 10	CC(=O)Nc1ccc(Nc2cc([C@H]3CC[C@@H](OC(=O)NC(C)C)C3)[nH]n2)nc1 [Example 6]		
< 10	< 10	CC(C)NC(=O)O[C@@H]1CC[C@H](c2cc(Nc3ccc(NS(=O)(=O)C4CC4)cn3)n[nH]2)C1 [Example 8]		
10 to 50	< 10	COc1ccc(Nc2cc([C@H]3CC[C@@H](OC(=O)NC(C)C)C3)[nH]n2)nc1 [Example 9]		
10 to 50	< 10	CC(C)NC(=O)O[C@@H]1CC[C@H](c2cc(Nc3ccc(CN(C)C)cc3F)n[nH]2)C1 [Example 10]		
10 to 50	10 to 50	COCCN(C=O)c1ccc(Nc2cc(C3CCC(OC(=O)NC(C)C)C3)[nH]n2)nc1 (centres unmarked) [Example 12]		
< 10	< 10	CC(C)NC(=O)O[C@@H]1CC[C@H](c2cc(Nc3ccc(N4CCCC4=O)cn3)n[nH]2)C1 [Example 14]		
< 10	< 10	CC(C)NC(=O)O[C@@H]1CC[C@H](c2cc(Nc3ccc(NS(C)(=O)=O)nc3)n[nH]2)C1 [Example 15]		
< 10	< 10	CNS(=O)(=O)c1ccc(Nc2cc(C3CCC(OC(=O)NC(C)C)C3)[nH]n2)c(F)c1 (centres unmarked) [Example 16]		
< 10	< 10	CC(C)NC(=O)O[C@@H]1CC[C@H](c2cc(Nc3ccc(NS(C)(=O)=O)c(C(F)(F)F)c3)n[nH]2)C1 [Example 27]		
< 10	< 10	CC(C)NC(=O)O[C@@H]1CC[C@H](c2cc(Nc3ccc(S(N)(=O)=O)c(F)c3)n[nH]2)C1 [Example 33]		
< 10	< 10	CC(C)NC(=O)O[C@H]1CC[C@@H](c2cc(Nc3ccc(S(N)(=O)=O)cc3F)n[nH]2)C1 [Example 34]		
10 to 50	10 to 50	CC(C)NC(=O)O[C@@H]1CC[C@H](c2cc(Nc3ccc(P(C)(C)=O)cc3)n[nH]2)C1 [Example 41]		
< 10	< 10	CC(C)NC(=O)O[C@@H]1CC[C@H](c2cc(Nc3ccc4c(c3)CC(=O)N4)n[nH]2)C1 [Example 42]		
< 10	< 10	CC(C)NC(=O)O[C@@H]1CC[C@H](c2cc(Nc3ccc(NS(C)(=O)=O)c(OC(F)(F)F)c3)n[nH]2)C1 [Example 47]		
< 10	< 10	CC1(NC(=O)O[C@@H]2CC[C@H](c3cc(Nc4ccc5c(c4)CS(=O)(=O)C5)n[nH]3)C2)CC1 [Example 48]		
< 10	< 10	CC(C)NC(=O)O[C@@H]1CC[C@H](c2cc(Nc3ccc(S(N)(=O)=O)c(Cl)n3)n[nH]2)C1 [Example 52]		
< 10	< 10	COc1cc(Nc2cc([C@H]3CC[C@@H](OC(=O)NC(C)C)C3)[nH]n2)ccc1NS(C)(=O)=O [Example 55]		
< 10	< 10	CC(C)NC(=O)O[C@@H]1CC[C@H](c2cc(Nc3ccc4c(c3)CNS4(=O)=O)n[nH]2)C1 [Example 56]		
